Measurements: patent US20260001928A1 (CORTERIA PHARMACEUTICALS, priority 2022, published 2026)
*1 amine or outer side, *2 acyl side, *3 side chain or, on linkers, in order; H or OH if unused. Where a SMILES comes first, the peptide text is derived from it. Side-chain parts run from the residue outwards. [ ]: non-standard residue; d: D form. The star is where a group is joined. C20 diacid = O=C(O)CCCCCCCCCCCCCCCCCCC(=O)*; C18 diacid = O=C(O)CCCCCCCCCCCCCCCCC(=O)*; C16 diacid = O=C(O)CCCCCCCCCCCCCCC(=O)*; γGlu = O=C(O)[C@H](CCC(=O)[*:2])N[*:1]; C14 diacid = O=C(O)CCCCCCCCCCCCC(=O)*; Api = NC1(C(=O)O)CCNCC1; Pentanoyl = CCCCC(=O)*; AEEA = NCCOCCOCC(=O)O; Aib = CC(C)(N)C(=O)O

How the values were obtained:
[1] = target: T1, human CRF2a receptor (Homo sapiens, UniProt Q13324); assay: Activity at human CRF2a receptor, cAMP functional assay in TeloHEAC cells; format: cell-based; conditions: TeloHEAC cells stably expressing human CRF2a receptor, relative to urocortin 2 (100 nM = 100%)
T1 construct: expressed in transfected cells; host or cells: TeloHEAC cells
T1 sequence (Q13324 1-411): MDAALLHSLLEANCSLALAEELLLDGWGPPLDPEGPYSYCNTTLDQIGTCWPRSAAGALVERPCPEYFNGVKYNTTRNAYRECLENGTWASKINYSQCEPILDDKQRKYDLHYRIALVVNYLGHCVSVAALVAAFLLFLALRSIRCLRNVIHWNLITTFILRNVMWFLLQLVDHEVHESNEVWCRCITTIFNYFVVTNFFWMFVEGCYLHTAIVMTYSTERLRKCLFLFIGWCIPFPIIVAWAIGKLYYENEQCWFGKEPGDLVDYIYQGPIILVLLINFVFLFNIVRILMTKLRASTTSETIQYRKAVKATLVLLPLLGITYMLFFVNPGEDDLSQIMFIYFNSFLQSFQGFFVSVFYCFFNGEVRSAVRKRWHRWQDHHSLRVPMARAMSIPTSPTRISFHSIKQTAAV
Procedure, shortened: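 cAMP accumulation was measured by HTRF 665/620 nm ratio after 30 min at 37° C compound exposure (16 twofold dilutions) of CRF2a-expressing TeloHEAC cells, 10000/well, in HEPES-buffered HBSS plus IBMX. Activity was normalised to urocortin 2 at 100 nM (100%), and EC50 was the concentration giving half-maximal activation.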

[2] = target: T2, CFR1R receptor (Homo sapiens, UniProt P34998); assay: Activity at anti-target CFR1R receptor, cAMP assay in CRF1R-overexpression CHO-K1 cells; format: cell-based; conditions: 100% = Sauvagine at 100 nM; for EC50: cAMP
T2 construct: host or cells: CHO-K1 (clone 2)
T2 sequence (P34998 24-415): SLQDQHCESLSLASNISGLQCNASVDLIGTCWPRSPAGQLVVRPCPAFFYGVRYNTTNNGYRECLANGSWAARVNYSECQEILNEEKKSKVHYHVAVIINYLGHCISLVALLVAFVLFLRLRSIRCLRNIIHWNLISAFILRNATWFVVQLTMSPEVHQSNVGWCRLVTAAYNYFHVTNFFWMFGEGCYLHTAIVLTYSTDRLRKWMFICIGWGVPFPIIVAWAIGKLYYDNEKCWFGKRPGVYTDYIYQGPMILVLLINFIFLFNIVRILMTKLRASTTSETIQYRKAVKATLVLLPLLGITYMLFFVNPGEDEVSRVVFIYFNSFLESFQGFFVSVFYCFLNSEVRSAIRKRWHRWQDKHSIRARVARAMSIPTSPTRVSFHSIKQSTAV
Procedure, shortened: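 Grow clone 2 to near confluence at 37° C. under 5% CO2 in F12 (Hams) with 10% FBS and G418, harvest, and freeze in 10% DMSO. Thaw and plate at 4000 cells/well. Then proceed per the TeloHAEC method, normalising to Sauvagine 100 nM as maximum.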

SMILES	EC50 [1] [nM]	Emax (% I) [2] [% I]	EC50 [2] [nM]
CCCCC(=O)N[C@H](C(=O)N[C@@H](CC(C)C)C(=O)N[C@@H](CO)C(=O)N[C@@H](CC(C)C)C(=O)N[C@@H](CC(=O)O)C(=O)N[C@@H](C(=O)N1CCC[C@H]1C(=O)N[C@H](C(=O)N[C@@H](CCCCN)C(=O)N[C@@H](CC(C)C)C(=O)N[C@@H](CCCCNC(=O)COCCOCCNC(=O)COCCOCCNC(=O)CC[C@H](NC(=O)CCCCCCCCCCCCCCCCC(=O)O)C(=O)O)C(=O)N[C@@H](CCCCN)C(=O)N[C@H](C(=O)N[C@@H](CC(C)C)C(=O)N[C@@H](CC(C)C)C(=O)N[C@@H](CCC(=O)O)C(=O)N[C@@H](CCC(N)=O)C(=O)N[C@@H](CCC(=O)O)C(=O)N[C@@H](CCCCN)C(=O)N[C@@H](CCC(N)=O)C(=O)N[C@@H](CCCCN)C(=O)N[C@@H](CCCCN)C(=O)N[C@@H](CCC(N)=O)C(=O)N[C@@H](CCCNC(=N)N)C(=O)N[C@@H](CCC(=O)O)C(=O)N[C@@H](CCC(N)=O)C(=O)N[C@@H](C)C(=O)N[C@@H](CCC(=O)O)C(=O)N[C@H](C(=O)N[C@@H](CC(N)=O)C(=O)NC(C)(C)C(=O)N[C@@H](CCC(N)=O)C(=O)N[C@H](C(=O)N[C@@H](CC(C)C)C(=O)N[C@@H](C)C(=O)N[C@@H](CCC(N)=O)C(=O)N[C@H](C(N)=O)C(C)C)[C@@H](C)CC)[C@@H](C)O)[C@@H](C)CC)[C@@H](C)CC)C(C)C)C(C)C [compound 120] (Pentanoyl-VLSLD[dV]PIKLK([AEEA-AEEA-γGlu-C18 diacid])KILLEQEKQKKQREQAETN[Aib]QILAQV-NH2)	1.33	3	> 250
CC[C@H](C)[C@H](NC(C)=O)C(=O)N[C@H](C(=O)N[C@@H](CC(C)C)C(=O)N[C@@H](CO)C(=O)N[C@@H](CC(C)C)C(=O)N[C@@H](CC(=O)O)C(=O)N[C@@H](C(=O)N1CCC[C@H]1C(=O)N[C@H](C(=O)N[C@@H](CCCCN)C(=O)N[C@@H](CC(C)C)C(=O)N[C@@H](CCCCNC(=O)CC[C@H](NC(=O)CCCCCCCCCCCCCCCCCCC(=O)O)C(=O)O)C(=O)N[C@@H](CCCCN)C(=O)N[C@H](C(=O)N[C@@H](CC(C)C)C(=O)N[C@@H](CC(C)C)C(=O)N[C@@H](CCC(=O)O)C(=O)N[C@@H](CCC(N)=O)C(=O)N[C@@H](CCC(=O)O)C(=O)N[C@@H](CCCCN)C(=O)N[C@@H](CCC(N)=O)C(=O)N[C@@H](CCCCN)C(=O)NC(C)(C)C(=O)N[C@@H](CCC(N)=O)C(=O)N[C@@H](CCCNC(=N)N)C(=O)N[C@@H](CCC(=O)O)C(=O)N[C@@H](CCC(N)=O)C(=O)N[C@@H](C)C(=O)N[C@@H](CCC(=O)O)C(=O)N[C@H](C(=O)N[C@@H](CC(N)=O)C(=O)NC1(C(=O)N[C@@H](CCC(N)=O)C(=O)N[C@H](C(=O)N[C@@H](CC(C)C)C(=O)N[C@@H](C)C(=O)N[C@@H](CCC(N)=O)C(=O)N[C@H](C(N)=O)C(C)C)[C@@H](C)CC)CCNCC1)[C@@H](C)O)[C@@H](C)CC)[C@@H](C)CC)C(C)C)C(C)C [compound 208] (Ac-IVLSLD[dV]PIKLK([γGlu-C20 diacid])KILLEQEKQK[Aib]QREQAETN[Api]QILAQV-NH2)	0.15	63	
CC[C@H](C)[C@H](NC(C)=O)C(=O)N[C@H](C(=O)N[C@@H](CC(C)C)C(=O)N[C@@H](CO)C(=O)N[C@@H](CC(C)C)C(=O)N[C@@H](CC(=O)O)C(=O)N[C@@H](C(=O)N1CCC[C@H]1C(=O)N[C@H](C(=O)N[C@@H](CCCCN)C(=O)N[C@@H](CC(C)C)C(=O)N[C@@H](CCCCNC(=O)CC[C@H](NC(=O)CCCCCCCCCCCCCCC(=O)O)C(=O)O)C(=O)N[C@@H](CCCCN)C(=O)N[C@H](C(=O)N[C@@H](CC(C)C)C(=O)N[C@@H](CC(C)C)C(=O)N[C@@H](CCC(=O)O)C(=O)N[C@@H](CCC(N)=O)C(=O)N[C@@H](CCC(=O)O)C(=O)N[C@@H](CCCCN)C(=O)N[C@@H](CCC(N)=O)C(=O)N[C@@H](CCCCN)C(=O)NC(C)(C)C(=O)N[C@@H](CCC(N)=O)C(=O)N[C@@H](CCCNC(=N)N)C(=O)N[C@@H](CCC(=O)O)C(=O)N[C@@H](CCC(N)=O)C(=O)N[C@@H](C)C(=O)N[C@@H](CCC(=O)O)C(=O)N[C@H](C(=O)N[C@@H](CC(N)=O)C(=O)NC1(C(=O)N[C@@H](CCC(N)=O)C(=O)N[C@H](C(=O)N[C@@H](CC(C)C)C(=O)N[C@@H](C)C(=O)N[C@@H](CCC(N)=O)C(=O)N[C@H](C(N)=O)C(C)C)[C@@H](C)CC)CCNCC1)[C@@H](C)O)[C@@H](C)CC)[C@@H](C)CC)C(C)C)C(C)C [compound 153] (Ac-IVLSLD[dV]PIKLK([γGlu-C16 diacid])KILLEQEKQK[Aib]QREQAETN[Api]QILAQV-NH2)	0.41	22	> 250
CC[C@H](C)[C@H](NC(C)=O)C(=O)N[C@H](C(=O)N[C@@H](CC(C)C)C(=O)N[C@@H](CO)C(=O)N[C@@H](CC(C)C)C(=O)N[C@@H](CC(=O)O)C(=O)N[C@@H](C(=O)N1CCC[C@H]1C(=O)N[C@H](C(=O)N[C@@H](CCCCN)C(=O)N[C@@H](CC(C)C)C(=O)N[C@@H](CCCCNC(=O)COCCOCCNC(=O)COCCOCCNC(=O)CC[C@H](NC(=O)CCCCCCCCCCCCC(=O)O)C(=O)O)C(=O)N[C@@H](CCCCN)C(=O)N[C@H](C(=O)N[C@@H](CC(C)C)C(=O)N[C@@H](CC(C)C)C(=O)N[C@@H](CCC(=O)O)C(=O)N[C@@H](CCC(N)=O)C(=O)N[C@@H](CCC(=O)O)C(=O)N[C@@H](CCCCN)C(=O)N[C@@H](CCC(N)=O)C(=O)N[C@@H](CCCCN)C(=O)N[C@@H](CCCCN)C(=O)N[C@@H](CCC(N)=O)C(=O)N[C@@H](CCCNC(=N)N)C(=O)N[C@@H](CCC(=O)O)C(=O)N[C@@H](CCC(N)=O)C(=O)N[C@@H](C)C(=O)N[C@@H](CCC(=O)O)C(=O)N[C@H](C(=O)N[C@@H](CC(N)=O)C(=O)NC(C)(C)C(=O)N[C@@H](CCC(N)=O)C(=O)N[C@H](C(=O)N[C@@H](CC(C)C)C(=O)N[C@@H](C)C(=O)N[C@@H](CCC(N)=O)C(=O)N[C@H](C(N)=O)C(C)C)[C@@H](C)CC)[C@@H](C)O)[C@@H](C)CC)[C@@H](C)CC)C(C)C)C(C)C [compound 171] (Ac-IVLSLD[dV]PIKLK([AEEA-AEEA-γGlu-C14 diacid])KILLEQEKQKKQREQAETN[Aib]QILAQV-NH2)	5.79	0	> 250
CC[C@H](C)[C@H](NC(C)=O)C(=O)N[C@H](C(=O)N[C@@H](CC(C)C)C(=O)N[C@@H](CO)C(=O)N[C@@H](CC(C)C)C(=O)N[C@@H](CC(=O)O)C(=O)N[C@@H](C(=O)N1CCC[C@H]1C(=O)N[C@H](C(=O)N[C@@H](CCCCN)C(=O)N[C@@H](CC(C)C)C(=O)N[C@@H](CCCCNC(=O)CC[C@H](NC(=O)CCCCCCCCCCCCC(=O)O)C(=O)O)C(=O)N[C@@H](CCCCN)C(=O)N[C@H](C(=O)N[C@@H](CC(C)C)C(=O)N[C@@H](CC(C)C)C(=O)N[C@@H](CCC(=O)O)C(=O)N[C@@H](CCC(N)=O)C(=O)N[C@@H](CCC(=O)O)C(=O)N[C@@H](CCCCN)C(=O)N[C@@H](CCC(N)=O)C(=O)N[C@@H](CCCCN)C(=O)N[C@@H](C)C(=O)N[C@@H](CCC(N)=O)C(=O)N[C@@H](CCCNC(=N)N)C(=O)N[C@@H](CCC(=O)O)C(=O)N[C@@H](CCC(N)=O)C(=O)N[C@@H](C)C(=O)N[C@@H](CCC(=O)O)C(=O)N[C@H](C(=O)N[C@@H](CC(N)=O)C(=O)NC1(C(=O)N[C@@H](CCC(N)=O)C(=O)N[C@H](C(=O)N[C@@H](CC(C)C)C(=O)N[C@@H](C)C(=O)N[C@@H](CCC(N)=O)C(=O)N[C@H](C(N)=O)C(C)C)[C@@H](C)CC)CCNCC1)[C@@H](C)O)[C@@H](C)CC)[C@@H](C)CC)C(C)C)C(C)C [compound 169] (Ac-IVLSLD[dV]PIKLK([γGlu-C14 diacid])KILLEQEKQKAQREQAETN[Api]QILAQV-NH2)	1.34	13	> 250
